{"source": "patent US11261186B2", "about": "“Biaryl derivative as GPR120 agonist” (LG CHEM, LTD., priority 2014, dated 2022)"}
{"biological_target": "T1, hGPR120 (Homo sapiens, UniProt Q5NUL3)", "T1 construct": "expressed in transfected cells; host or cells: CHO-K1", "T1 sequence (Q5NUL3 1-361)": "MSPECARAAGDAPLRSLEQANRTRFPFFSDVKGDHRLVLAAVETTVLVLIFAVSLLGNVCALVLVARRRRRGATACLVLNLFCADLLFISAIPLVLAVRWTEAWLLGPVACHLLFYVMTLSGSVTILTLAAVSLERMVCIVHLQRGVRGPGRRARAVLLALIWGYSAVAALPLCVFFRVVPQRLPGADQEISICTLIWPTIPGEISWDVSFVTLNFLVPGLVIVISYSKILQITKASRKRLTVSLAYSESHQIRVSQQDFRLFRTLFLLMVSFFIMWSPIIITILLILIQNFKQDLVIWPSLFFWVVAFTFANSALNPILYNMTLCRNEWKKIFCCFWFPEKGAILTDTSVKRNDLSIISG", "test": "Measurement of Activity of GPR120 Agonist (Cell-Based Assay), Calcium 5 dye fluorescence", "conditions": "CHO-K1 cells expressing Ga16 and hGPR120", "in_short": "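After an 18 h incubation at 37 °C, the transfected CHO-K1 cells (Gα16, hGPR120) received Calcium 5 dye for 1 h; compound dilutions in 0.5% DMSO were then injected and emission at 525 nm recorded, with values given as % of the vehicle response.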", "units": {"EC50": "µM"}}
{"smiles": "O=C(O)CC1CCN(c2c(F)cc(-c3nccc(OCC4CC4)n3)cc2F)CC1", "note": "[Example 332, 2-[1-[4-[4-(cyclopropylmethoxy)pyrimidin-2-yl]-2,6-difluoro-phenyl]-4-piperidyl]acetic acid]", "EC50": "< 0.2"}
{"smiles": "O=C(O)CC1CCN(c2c(F)cc(-c3cncc(OCC4CC4)n3)cc2F)CC1", "note": "[Example 333, 2-[1-[4-[6-(cyclopropylmethoxy)pyrazin-2-yl]-2,6-difluoro-phenyl]-4-piperidyl]acetic acid]", "EC50": "< 0.2"}
{"smiles": "O=C(O)CC1CN(c2c(F)cc(-c3cncc(OC4CCC4)n3)cc2F)C1", "note": "[Example 334, 2-[1-[4-[6-(cyclobutoxy)pyrazin-2-yl]-2,6-difluoro-phenyl]azetidin-3-yl]acetic acid]", "EC50": "< 0.2"}
{"smiles": "O=C(O)CC1CN(c2c(F)cc(-c3cncc(OCC4CC4)n3)cc2F)C1", "note": "[Example 335, 2-[1-[4-[6-(cyclopropylmethoxy)pyrazin-2-yl]-2,6-difluoro-phenyl]azetidin-3-yl]acetic acid]", "EC50": "< 0.2"}
{"smiles": "O=C(O)CC1CN(c2c(F)cc(-c3nccc(OCC4CC4)n3)cc2F)C1", "note": "[Example 337, 2-[1-[4-[4-(cyclopropylmethoxy)pyrimidin-2-yl]-2,6-difluoro-phenyl]azetidin-3-yl]acetic acid]", "EC50": "< 0.2"}
{"smiles": "CCOc1cncc(-c2cc(F)c(N3CCC(CC(=O)O)CC3)c(F)c2)n1", "note": "[Example 338, 2-[1-[4-(6-ethoxypyrazin-2-yl)-2,6-difluoro-phenyl]-4-piperidyl]acetic acid]", "EC50": "< 0.2"}
{"smiles": "CC(C)Oc1cncc(-c2cc(F)c(N3CCC(CC(=O)O)CC3)c(F)c2)n1", "note": "[Example 339, 2-[1-[2,6-difluoro-4-(6-isopropoxypyrazin-2-yl)phenyl]-4-piperidyl]acetic acid]", "EC50": "< 0.2"}
{"smiles": "COc1cncc(-c2cc(F)c(N3CCC(CC(=O)O)CC3)c(F)c2)n1", "note": "[Example 340, 2-[1-[2,6-difluoro-4-(6-methoxypyrazin-2-yl)phenyl]-4-piperidyl]acetic acid]", "EC50": "0.2 to 2"}
{"smiles": "CCCOc1cncc(-c2cc(F)c(N3CCC(CC(=O)O)CC3)c(F)c2)n1", "note": "[Example 341, 2-[1-[2,6-difluoro-4-(6-propoxypyrazin-2-yl)phenyl]-4-piperidyl]acetic acid]", "EC50": "< 0.2"}
{"smiles": "CC(C)COc1cncc(-c2cc(F)c(N3CCC(CC(=O)O)CC3)c(F)c2)n1", "note": "[Example 342, 2-[1-[2,6-difluoro-4-(6-isobutoxypyrazin-2-yl)phenyl]-4-piperidyl]acetic acid]", "EC50": "< 0.2"}
{"smiles": "CCCCOc1cncc(-c2cc(F)c(N3CCC(CC(=O)O)CC3)c(F)c2)n1", "note": "[Example 343, 2-[1-[4-(6-butoxypyrazin-2-yl)-2,6-difluoro-phenyl]-4-piperidyl]acetic acid]", "EC50": "< 0.2"}
{"smiles": "O=C(O)CC1CCN(c2c(F)cc(-c3cncc(OC4CCCC4)n3)cc2F)CC1", "note": "[Example 344, 2-[1-[4-[6-(cyclopentoxy)pyrazin-2-yl]-2,6-difluoro-phenyl]-4-piperidyl]acetic acid]", "EC50": "< 0.2"}
{"smiles": "CCOc1ccnc(-c2cc(F)c(N3CCC(CC(=O)O)CC3)c(F)c2)n1", "note": "[Example 345, 2-[1-[4-(4-ethoxypyrimidin-2-yl)-2,6-difluoro-phenyl]-4-piperidyl]acetic acid]", "EC50": "< 0.2"}
{"smiles": "CC(C)Oc1ccnc(-c2cc(F)c(N3CCC(CC(=O)O)CC3)c(F)c2)n1", "note": "[Example 346, 2-[1-[2,6-difluoro-4-(4-isopropoxypyrimidin-2-yl)phenyl]-4-piperidyl]acetic acid]", "EC50": "< 0.2"}
{"smiles": "CCCOc1ccnc(-c2cc(F)c(N3CCC(CC(=O)O)CC3)c(F)c2)n1", "note": "[Example 347, 2-[1-[2,6-difluoro-4-(4-propoxypyrimidin-2-yl)phenyl]-4-piperidyl]acetic acid]", "EC50": "< 0.2"}
{"smiles": "CC(C)COc1ccnc(-c2cc(F)c(N3CCC(CC(=O)O)CC3)c(F)c2)n1", "note": "[Example 348, 2-[1-[2,6-difluoro-4-(4-isobutoxypyrimidin-2-yl)phenyl]-4-piperidyl]acetic acid]", "EC50": "< 0.2"}
